Results reported in patent publication US20120190703A1, “SALTS OF 13A-(S)DESOXYTYLOPHORININE, PREPARATION METHODS AND PHARMACEUTICAL COMPOSITIONS AND USES THEREOF” (priority 2009, published 2012).
Values joined by “and” are separate entries in the source; they are usually repeats but may differ in a detail not shown here. Equal values may be shown once. Read-outs that look alike come from different tables or passages of the source. Marks after values point to notes of the source that are not given here.

Columns and labels:
[1] = Solubility in water; type: physicochemical; settings: for solubility: water
[2] = test system: Bel7402 human liver cancer cell; assay: Cytotoxic activity assay (MTT), Bel7402; type: cell-based; settings: Bel-7402, 120 h, 5 days
Procedure: (§1) To evaluate the in vitro antitumor activity of (+)-13a-(S)-Deoxytylophorinine salts in this invention, Cytotoxic activity assay (MTT) experiment was persued.
(§2) 1. Tumor cells at log phase were incubated on 96-well plates at a density of 1˜1.0×10^4 cells/ml, 100 μl/well. Cells were cultured for 24 h at 37° C. in a cell incubator with 5% CO2.
(§3) 2. The treatment cells were exposed to the tested agents at different concentrations and cultured for 5 days in a cell incubator with full humidity incubator.
(§4) 3. The incubation medium was removed, then 100 μl 0.04% MTT was added to each well and Cells were cultured for 4 hours under the same conditions.
(§5) 4. The incubation medium was removed, then 150 μl DMSO was added to each well, the absorbance at a reference wavelength of 450 nm and a test wavelength of 570 nm was read. Drug inhibitory rate was calculated.

[3] = test system: Hct8 human colon cancer cell; assay: Cytotoxic activity assay (MTT), Hct8; type: cell-based; settings: HCT-8, 120 h, 5 days
Procedure: as §1, §2, §3, §4, §5

[4] = test system: H22 tumor-bearing mice; settings: intragastric once daily
Description: To determine the pharmacodynamic characters of 13a-(S)-deoxytylophorinine and its salts, the impact of these compounds to the tumor growth in H22 tumor-bearing mice was surveyed.
Male Kunming mice were obtained from the Laboratory Animal Center, Academy of Military Medical Science. Body weight 18˜22 g. 6 animals per group, totally 10 groups, 60 animals.
(+)-13a-(S)-deoxytylophorinine, (+)-13a-(S)-deoxytylophorinine Tartrate, (+)-13a-(S)-deoxytylophorinine Maleate, (+)-13a-(S)-deoxytylophorinine Citrate, Cytoxane (CTX) as positive control.
(+)-13a-(S)-deoxytylophorinine was administered at high dose (5 mg/kg) and low dose (2.5 mg/kg). Three (+)-13a-(S)-deoxytylophorinine salts were administered at high dose and low dose as equal moles with their prototype (Tartrate: 7.05 mg/kg, 3.53 mg/kg; Malate: 6.60 mg/kg, 3.30 mg/kg; Citrate: 7.90 mg/kg, 3.95 mg/kg).
Animals were reared in SPF grade circumstance to be observed for 24 h. The tumor cells liquid which resuscitated in abdominal cavity of KM mice was diluted with aseptic normal saline at 1:3 ratio. The resulting liquid was inoculated subcutaneously at forelimb with 0.2 mL every animal. After the injection over, the animals were divided to […] with 6 animals per group.
Four experimental samples were intragastric administered once daily 24 h after inoculation. The positive control CTX was intraperitoneal injected once daily. The animal body weight was recorded every day.

[5] = Plasma pharmacokinetics after oral administration in mice
Procedure: To determine the pharmacokinetic characters of 13a-(S)-deoxytylophorinine and its salts, the studies about plasma pharmacokinetics and the character of distribution in brain were pursued.
(§6) Male ICR mice. Body weight 18˜22 g.
(+)-13a-(S)-deoxytylophorinine Tartrate, (+)-13a-(S)-deoxytylophorinine Maleate, (+)-13a-(S)-deoxytylophorinine Citrate. All were dissolved in distilled water as 0.6 mg/ml solution before experiment progressed.
72 mice were divided to 3 groups with 24 animals per group, fasting for 16 h and drinking water freely. […] Plasma was isolated by centrifugalization. After the salts were administered orally, the brain tissues of mice were collected at 5 min, 15 min, 2 h time points. 25% tissue homogenate was prepared with normal saline addition. 200 μL of homogenate and plasma were added isovolumic MeCN to precipitate protein. 5 μL of clear supernatant was analyzed by LC/MS/MS.
(+)-13a-(S)-deoxytylophorinine was dissolved in DMSO and then diluted with MeOH with concentration 10, 50, 100, 500, 1000 and 2500 ng/ml respectively. 10 μl of standard solutions of (+)-13a-(S)-deoxytylophorinine with different concentration above were added to 200 μl of blank plasma sequently to adjust the concentration to 0.5, 2.5, 5, 25, 50, 125 ng/ml respectively. MeCN was added to the solution to precipitate protein, and 5 μl of result clear supernatant was analyzed with LC/MS/MS. Linear regression was ran with the peak area of (+)-13a-(S)-deoxytylophorinine as ordinate and the concentrations as abscissa.

[6] = Drug distribution in brain tissue after oral administration in mice; type: in vivo, ICR mice; settings: for Brain contents of (+)-13a-(S)-deoxytylophorinine (ng/ml), Mean ± SD / Brain contents of (+)-13a-(S)-deoxytylophorinine (ng/ml), individual animals 1-3: 6 mg/kg oral
Procedure: as §6
Plasma was isolated by centrifugalization. […] 25% tissue homogenate was prepared with normal saline addition.
The drug concentration-time data in brain tissue after administered orally of (+)-13a-(S)-deoxytylophorinine tartrate, maleate and citrate were represented in Table 8˜10 and FIG. 6˜8. […] (+)-13a-(S)-deoxytylophorinine could be detected in 5 min. The peak concentration was reached after 15 min, and the compound still can be detected after 2 h after administration.

[7] = high dose × 7 d, equal moles: prototype 5.0, tartrate 7.05, maleate 6.60, citrate 7.90 mg/kg
[8] = low dose × 7 d, equal moles: prototype 2.5, tartrate 3.53, maleate 3.30, citrate 3.95 mg/kg
[9] = 6 mg/kg oral, mice, Time (min) 0.08
[10] = 6 mg/kg oral, mice, Time (min) 0.25
[11] = 6 mg/kg oral, mice, Time (min) 0.5
[12] = 6 mg/kg oral, mice, Time (min) 1
[13] = 6 mg/kg oral, mice, Time (min) 2
[14] = 6 mg/kg oral, mice, Time (min) 3
[15] = 6 mg/kg oral, mice, Time (min) 4
[16] = 6 mg/kg oral, mice, Time (min) 6
[17] = male, ICR, mouse, plasma, po, 6 mg/kg

CC(O)C(=O)O.COc1ccc2c3c(c4cc(OC)c(OC)cc4c2c1)CN1CCC[C@H]1C3 [Lactate, (+)-13a-(S)-deoxytylophorinine Lactate]
Solubility in water (words) [1]: soluble in water
solubility [1]: 120 mg/mL
IC50 [2]: 40 nM
IC50 [3]: 79 nM

COc1ccc2c3c(c4cc(OC)c(OC)cc4c2c1)CN1CCC[C@H]1C3.O=C(O)/C=C\C(=O)O [Maleate, (+)-13a-(S)-deoxytylophorinine Maleate]
Solubility in water (words) [1]: soluble in water
solubility [1]: 44 mg/mL
Animal No. (Initial/Final) [4, 7]: 6/4
Body Weight(g) Final [4, 7]: 13.62 ± 2.08 g
Body Weight(g) Initial [4, 7]: 21.17 ± 0.98 g⁻¹
Inhibition (%) [4, 7]: 73.58** %
Tumor Weight (g, mean ± SD) [4, 7]: 0.30 ± 0.24 g
Animal No. (Initial/Final) [4, 8]: 6/6
Body Weight(g) Final [4, 8]: 23.79 ± 0.52 g
Body Weight(g) Initial [4, 8]: 22.50 ± 1.05 g⁻¹
Inhibition (%) [4, 8]: 45.56%
Tumor Weight (g, mean ± SD) [4, 8]: 0.62 ± 0.31 g
Peak concentration in blood ([5]; 6 mg/kg oral, mice): 35.4 ± 3.5 ng/mL
Time of peak concentration in blood ([5]; 6 mg/kg oral, mice): 5 min
t½z ([5]; 6 mg/kg oral, mice, plasma, non-compartment model): 1.72 h
Blood concentration of (+)-13a-(S)-deoxytylophorinine (ng/ml), Mean ± SD [5, 9]: 35.4 ± 3.5 ng/mL
Blood concentration of (+)-13a-(S)-deoxytylophorinine (ng/ml), individual animals 1-3 [5, 9]: 33.0 ng/mL and 37.9 ng/mL
Blood concentration of (+)-13a-(S)-deoxytylophorinine (ng/ml), Mean ± SD [5, 10]: 27.4 ± 6.2 ng/mL
Blood concentration of (+)-13a-(S)-deoxytylophorinine (ng/ml), individual animals 1-3 [5, 10]: 24.2 ng/mL and 23.5 ng/mL and 34.6 ng/mL
Blood concentration of (+)-13a-(S)-deoxytylophorinine (ng/ml), Mean ± SD [5, 11]: 12.2 ± 4.0 ng/mL
Blood concentration of (+)-13a-(S)-deoxytylophorinine (ng/ml), individual animals 1-3 [5, 11]: 15.7 ng/mL and 13.0 ng/mL and 7.9 ng/mL
Blood concentration of (+)-13a-(S)-deoxytylophorinine (ng/ml), Mean ± SD [5, 12]: 9.2 ± 3.2 ng/mL
Blood concentration of (+)-13a-(S)-deoxytylophorinine (ng/ml), individual animals 1-3 [5, 12]: 12.5 ng/mL and 6.2 ng/mL and 8.7 ng/mL
Blood concentration of (+)-13a-(S)-deoxytylophorinine (ng/ml), Mean ± SD [5, 13]: 11.2 ± 8.0 ng/mL
Blood concentration of (+)-13a-(S)-deoxytylophorinine (ng/ml), individual animals 1-3 [5, 13]: 2.0 ng/mL and 15.9 ng/mL and 15.7 ng/mL
Blood concentration of (+)-13a-(S)-deoxytylophorinine (ng/ml), Mean ± SD [5, 14]: 8.6 ± 6.6 ng/mL
Blood concentration of (+)-13a-(S)-deoxytylophorinine (ng/ml), individual animals 1-3 [5, 14]: 3.6 ng/mL and 16.1 ng/mL and 6.3 ng/mL
Blood concentration of (+)-13a-(S)-deoxytylophorinine (ng/ml), Mean ± SD [5, 15]: 2.8 ± 0.9 ng/mL
Blood concentration of (+)-13a-(S)-deoxytylophorinine (ng/ml), individual animals 1-3 [5, 15]: 2.6 ng/mL and 2.0 ng/mL and 3.8 ng/mL
Blood concentration of (+)-13a-(S)-deoxytylophorinine (ng/ml), Mean ± SD [5, 16]: 1.2 ± 1.0 ng/mL
Blood concentration of (+)-13a-(S)-deoxytylophorinine (ng/ml), individual animals 1-3 [5, 16]: 2.3 ng/mL and 1.0 ng/mL and 0.4 ng/mL
AUC(0-inf) [5, 17]: 49.9 ng·h/mL
AUC(0-t) [5, 17]: 46.9 ng·h/mL
Cmax [5, 17]: 35.5 ng/mL
MRT inf [5, 17]: 2.18 h
MRT last [5, 17]: 1.78 h
Tmax [5, 17]: 4.8 min
Brain contents of (+)-13a-(S)-deoxytylophorinine (ng/ml), Mean ± SD ([6]; Time (min) 5): 150.2 ± 84.8 ng/mL
Brain contents of (+)-13a-(S)-deoxytylophorinine (ng/ml), individual animals 1-3 ([6]; Time (min) 5): 245.2 ng/mL and 82.5 ng/mL and 122.7 ng/mL
Brain contents of (+)-13a-(S)-deoxytylophorinine (ng/ml), Mean ± SD ([6]; Time (min) 15): 150.3 ± 49.8 ng/mL
Brain contents of (+)-13a-(S)-deoxytylophorinine (ng/ml), individual animals 1-3 ([6]; Time (min) 15): 159.3 ng/mL and 96.6 ng/mL and 194.9 ng/mL
Brain contents of (+)-13a-(S)-deoxytylophorinine (ng/ml), Mean ± SD ([6]; Time (min) 120): 108.8 ± 74.7 ng/mL
Brain contents of (+)-13a-(S)-deoxytylophorinine (ng/ml), individual animals 1-3 ([6]; Time (min) 120): 27.2 ng/mL and 173.7 ng/mL and 125.4 ng/mL
Drug contents in brain compared with prototype ([6]; oral, 3 time points): higher than their prototype
